By EC50 is commonly meant the concentration at which the effect is half-maximal. Usually IC50 stands for the concentration at which inhibition is half-maximal.

One experiment has as its target T1, PD-1/PD-L1 interaction (Homo sapiens, UniProt Q9NZQ7).
T1 construct: expressed in transfected cells; host or cells: CHO cells (aAPC-PD-L1) co-cultured with Jurkat cells overexpressing PD-1 and an NFAT-luciferase reporter
The experiment is described as follows: PD-1/PD-L1 NFAT reporter co-culture assay. The note with it: Jurkat PD-1 NFAT-luciferase cells co-cultured with aAPC-PD-L1 CHO cells, 6 hrs at 37° C.; read-out: EC50 NFAT Luciferase. The class given is cell-based. The essentials: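 Jurkat cells overexpressing PD-1 with NFAT-driven luciferase were mixed with compound in RPMI 1640/2% FBS and seeded onto overnight-plated CHO aAPC-PD-L1 cells expressing surface anti-CD3 and PD-L1. Co-culture ran 6 h at 37 °C; luminescence read with ONE-Glo; EC50 from four-parameter fit.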

A further experiment concerns the target PD-1/PD-L1 (Homo sapiens, UniProt Q9NZQ7). The experiment in a line: PD-1/PD-L1 biochemical protein-protein interaction assay (ALPHA). The class given is binding. Particulars: 0.3 nM His tagged PD-L1, 2.5 nM biotinylated Fc-PD-1, 60 minutes at 25° C., read-out: IC50 PD-L1-PD-1 Alpha IC50-mono PD-L1-fcP-D1. In a few lines: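 ALPHA bead proximity assay of extracellular domains: 0.3 nM His-PD-L1 with 2.5 nM biotinylated Fc-PD-1 in 25 mM Hepes pH 7.4, 150 mM NaCl, 3.4 mM EDTA, 0.005% Tween 20, 0.01% BSA, 60 min at 25 °C. Anti-His acceptor and streptavidin donor beads added; IC50 from four-parameter fit of signal loss.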

Chain of PD-1/PD-L1 (Q9NZQ7 19-238 limits assumed): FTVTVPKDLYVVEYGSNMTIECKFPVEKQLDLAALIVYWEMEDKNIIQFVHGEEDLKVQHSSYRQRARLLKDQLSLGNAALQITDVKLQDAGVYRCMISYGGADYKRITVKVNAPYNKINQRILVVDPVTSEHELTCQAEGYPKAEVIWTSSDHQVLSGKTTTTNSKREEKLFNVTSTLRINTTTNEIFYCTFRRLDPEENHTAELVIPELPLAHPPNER
T1 sequence (Q9NZQ7 19-290): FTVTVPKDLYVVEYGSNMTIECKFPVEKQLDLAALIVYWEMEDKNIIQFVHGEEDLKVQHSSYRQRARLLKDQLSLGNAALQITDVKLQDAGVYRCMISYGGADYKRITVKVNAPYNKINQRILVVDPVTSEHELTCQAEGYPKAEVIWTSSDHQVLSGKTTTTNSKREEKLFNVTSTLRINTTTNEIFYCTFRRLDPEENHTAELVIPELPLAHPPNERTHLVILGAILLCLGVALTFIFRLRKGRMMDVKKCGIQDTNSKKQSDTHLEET

With `Cc1c(COc2cc(OCc3cncc(C#N)c3)c(CN[C@@](C)(CO)C(=O)O)cc2Cl)cccc1-c1cccc(-c2ccc3c(c2)CC[C@H]3N(C)C)c1C` [Example 378, (S)-2-((5-chloro-2-((5-cyanopyridin-3-yl)methoxy)-4-((3′-((R)-1-(dimethylamino)-2,3-dihydro-1H-inden-5-yl)-2,2′-dimethyl-[1,1′-biphenyl]-3-yl)methoxy)benzyl)amino)-3-hydroxy-2-methylpropanoic acid], the half-maximal effective concentration (EC50) on PD-1/PD-L1 interaction is 191 nM. In addition, the IC50 at PD-1/PD-L1 is 0.127 nM.

Regarding `Cc1c(COc2nc(OCc3cncc(C#N)c3)c(CNC[C@@H](O)CC(=O)O)cc2Br)cccc1-c1cccc(-c2ccc(OCCNC[C@@H](O)CC(=O)O)cc2)c1C` [Example 385, (S)-4-((2-((3″-(((3-bromo-5-((((S)-3-carboxy-2-hydroxypropyl)amino)methyl)-6-((5-cyanopyridin-3-yl)methoxy)pyridin-2-yl)oxy)methyl)-2′,2″-dimethyl-[1,1′:3′,1″-terphenyl]-4-yl)oxy)ethyl)amino)-3-hydroxybutanoic acid], the 50% effective concentration (EC50) on PD-1/PD-L1 interaction turned out to be 84 nM. The half-inhibitory concentration (IC50) on PD-1/PD-L1 amounted to 0.051 nM.

In the case of `Cc1c(COc2cc(OCc3cncc(C#N)c3)c(CNC[C@@H](O)CC(=O)O)cc2Cl)cccc1-c1cccc(-n2cc(CN)nn2)c1C` [Example 386, (S)-4-((4-((3′-(4-(aminomethyl)-1H-1,2,3-triazol-1-yl)-2,2′-dimethyl-[1,1′-biphenyl]-3-yl)methoxy)-5-chloro-2-((5-cyanopyridin-3-yl)methoxy)benzyl)amino)-3-hydroxybutanoic acid], the concentration for a half-maximal effect (EC50) on PD-1/PD-L1 interaction came to 868 nM. Besides, the IC50 at PD-1/PD-L1 came out at 0.302 nM.

Take `Cc1c(COc2cc(OCc3cncc(C#N)c3)c(CNC[C@@H](O)CC(=O)O)cc2Cl)cccc1-c1cccc(-c2cn(CCCNC[C@@H](O)CC(=O)O)nn2)c1C` [Example 387, (S)-4-((3-(4-(3′-((4-((((S)-3-carboxy-2-hydroxypropyl)amino)methyl)-2-chloro-5-((5-cyanopyridin-3-yl)methoxy)phenoxy)methyl)-2,2′-dimethyl-[1,1′-biphenyl]-3-yl)-1H-1,2,3-triazol-1-yl)propyl)amino)-3-hydroxybutanoic acid]: the EC50 at PD-1/PD-L1 interaction was found to be 362 nM. Also, the IC50 at PD-1/PD-L1 worked out at 0.051 nM.

On to `Cc1c(COc2cc(OCc3cncc(C#N)c3)c(CNC[C@@H](O)CC(=O)O)cc2Cl)cccc1-c1cccc(-c2ccn3cc(CNC[C@@H](O)CC(=O)O)nc3c2)c1C` [Example 397, (S)-4-(((7-(3′-((4-((((S)-3-carboxy-2-hydroxypropyl)amino)methyl)-2-chloro-5-((5-cyanopyridin-3-yl)methoxy)phenoxy)methyl)-2,2′-dimethyl-[1,1′-biphenyl]-3-yl)imidazo[1,2-a]pyridin-2-yl)methyl)amino)-3-hydroxybutanoic acid], for which the EC50 on PD-1/PD-L1 interaction is 709 nM. For the same compound, the half-inhibitory concentration (IC50) on PD-1/PD-L1 stood at 0.064 nM.

In the case of `COc1cc(OCc2cccc(-c3cccc(COc4nc(OC)c(CNC5(C(=O)O)CCC5)cc4Cl)c3C)c2C)c(Cl)cc1CNC1(C(=O)O)CCC1` [Example 486], the EC50 at PD-1/PD-L1 interaction was found to be 112 nM. Moreover, the IC50 at PD-1/PD-L1 worked out at 0.146 nM.

Regarding `Cc1c(COc2nc(OCc3cc(C#N)cc(C#N)c3)c(CNC[C@@H](O)CC(=O)O)cc2Br)cccc1-c1cccc(-c2ccc(OCCNC[C@@H](O)CC(=O)O)cc2)c1C` [Example 515], the 50% effective concentration (EC50) on PD-1/PD-L1 interaction turned out to be 95 nM. The half-maximal inhibitory concentration (IC50) at PD-1/PD-L1 is 0.203 nM.

With `Cc1c(COc2cc(OCc3cncc(C#N)c3)c(CN[C@@](C)(CO)C(=O)O)cc2Cl)cccc1-c1cccc(-c2ccc(S(N)(=O)=O)cc2)c1C` [Example 564], the concentration giving a half-maximal response (EC50) at PD-1/PD-L1 interaction was 80 nM. Also, on PD-1/PD-L1, the IC50 worked out at 0.293 nM.

With `COC1CN(C2CCc3cc(-c4cccc(-c5cccc(COc6cc(OCc7cncc(C#N)c7)c(CN[C@@](C)(CO)C(=O)O)cc6Cl)c5C)c4C)ccc32)C1` (stereo partly shown) [Example 585], on PD-1/PD-L1 interaction, the EC50 was determined as 182 nM. The half-maximal inhibitory concentration (IC50) at PD-1/PD-L1 stood at 0.098 nM.

Turning to `COc1nc(OCc2cccc(-c3cccc(COc4nc(OCc5cncc(C#N)c5)c(CNC[C@@H](O)CC(=O)O)cc4Br)c3C)c2C)c(Br)cc1CNC[C@@H](O)CC(=O)O` [Example 586], the 50% effective concentration (EC50) at PD-1/PD-L1 interaction amounted to 181 nM. At PD-1/PD-L1, the IC50 was 0.836 nM.

For `COc1nc(O[C@@H]2c3cccc(-c4cccc5c4C[C@@H](F)[C@@H]5Oc4nc(OC)c(CNC[C@@H](O)CC(=O)O)cc4Cl)c3C[C@H]2F)c(Cl)cc1CNC[C@@H](O)CC(=O)O` [Example 639, (3S,3′S)-4,4′-((((((1R,1′R,2R,2′R)-2,2′-difluoro-2,2′,3,3′-tetrahydro-1H,1′H-[4,4′-biindene]-1,1′-diyl)bis(oxy))bis(5-chloro-2-methoxypyridine-6,3-diyl))bis(methylene))bis(azanediyl))bis(3-hydroxybutanoic acid)], on PD-1/PD-L1 interaction, the EC50 came to 942 nM. In addition, at PD-1/PD-L1, the 50% inhibitory concentration (IC50) amounted to 1.85 nM.

With `COc1nc(O[C@@H]2c3cccc(-c4cccc5c4C[C@H](F)[C@@H]5Oc4nc(OC)c(CNC[C@@H](O)CC(=O)O)cc4Cl)c3C[C@@H]2F)c(Cl)cc1CNC[C@@H](O)CC(=O)O` [Example 640, (3S,3′S)-4,4′-((((((1R,1′R,2S,2′S)-2,2′-difluoro-2,2′,3,3′-tetrahydro-1H,1′H-[4,4′-biindene]-1,1′-diyl)bis(oxy))bis(5-chloro-2-methoxypyridine-6,3-diyl))bis(methylene))bis(azanediyl))bis(3-hydroxybutanoic acid)], the EC50 on PD-1/PD-L1 interaction was not below 50000 nM. Further, the IC50 at PD-1/PD-L1 stood at 1.09 nM.

In the case of `Cc1c(-c2ccc(OCCNC[C@@H](O)CC(=O)O)cc2)cccc1-c1cccc2c1CC[C@@H]2Oc1nc(OCc2cncc(C#N)c2)c(CNC[C@@H](O)CC(=O)O)cc1Cl` [Example 675], on PD-1/PD-L1 interaction, the 50% effective concentration (EC50) stood at 95 nM. Further, on PD-1/PD-L1, the IC50 turned out to be 0.064 nM.

As for `Cc1c(-c2ccc(OCCNC[C@@H](O)CC(=O)O)cc2)cccc1-c1cccc2c1CC[C@@H]2Oc1nc(OCc2cncc(C#N)c2)c(CNC[C@@H](O)CC(=O)O)cc1Br` [Example 676], the concentration for a half-maximal effect (EC50) on PD-1/PD-L1 interaction was 62 nM. Moreover, on PD-1/PD-L1, the half-inhibitory concentration (IC50) was found to be 0.064 nM.

`O=C(O)C[C@H](O)CNCc1ccc(OC2CCc3c(-c4cccc5c4CCC5Oc4ccc(CNC[C@@H](O)CC(=O)O)cc4)cccc32)cc1` (stereo partly shown) [Example 681]: on PD-1/PD-L1 interaction, the concentration giving a half-maximal response (EC50) is not below 50000 nM. On PD-1/PD-L1, the IC50 worked out at 8.91 nM.

As to `CS(=O)(=O)c1cncc(COc2nc(O[C@H]3CCc4c(-c5cccc6c5CC[C@@H]6Oc5nc(OCc6cncc(S(C)(=O)=O)c6)c(CN6C[C@@H](O)CC6=O)cc5Cl)cccc43)c(Cl)cc2CNC[C@@H](O)CC(=O)O)c1` [Example 693], the concentration giving a half-maximal response (EC50) on PD-1/PD-L1 interaction was 120 nM. The 50% inhibitory concentration (IC50) on PD-1/PD-L1 was determined as 0.585 nM.

As for `CS(=O)(=O)c1cncc(COc2nc(O[C@H]3CCc4c(-c5cccc6c5CC[C@@H]6Oc5nc(OCc6cncc(S(C)(=O)=O)c6)c(CNC[C@@H](O)CC(=O)O)cc5Cl)cccc43)c(Cl)cc2CNC[C@@H](O)CC(=O)O)c1` [Example 694], the EC50 at PD-1/PD-L1 interaction was 96 nM. The half-maximal inhibitory concentration (IC50) on PD-1/PD-L1 worked out at 0.051 nM.

On to `Cc1c(-c2ccc(OCCNC[C@@H](O)CC(=O)O)cc2)cccc1-c1cccc2c1CC[C@@H]2Oc1nc(OCc2cc(C#N)cc(C#N)c2)c(CNC[C@@H](O)CC(=O)O)cc1Br` [Example 753], for which the EC50 on PD-1/PD-L1 interaction turned out to be 35 nM. In addition, the IC50 at PD-1/PD-L1 was determined as 0.064 nM.

Take `CNC(=O)COc1nc(O[C@H]2CCc3c(-c4cccc(-c5ccc(OCCNC[C@@H](O)CC(=O)O)cc5)c4C)cccc32)c(Br)cc1CNC[C@@H](O)CC(=O)O` [Example 754]: the EC50 on PD-1/PD-L1 interaction came to 434 nM. Further, at PD-1/PD-L1, the IC50 came to 0.091 nM.

`CNC(=O)COc1nc(O[C@H]2CCc3c(-c4cccc(-c5ccc(OCCNC[C@@H](O)CC(=O)O)cc5)c4C)cccc32)ccc1CNC[C@@H](O)CC(=O)O` [Example 756]: on PD-1/PD-L1 interaction, the EC50 stood at 6590 nM. Moreover, at PD-1/PD-L1, the IC50 came to 1.16 nM.
